Data on 17 compounds can be found in patent US10676486B2, “Macrocyclic RIP2 kinase inhibitors” (ONCODESIGN S.A., priority 2014, dated 2020).

A value given as a limit tells only on which side of the number the result lay.

One data set concerns the target RIP2 recombinant protein (Homo sapiens, UniProt O43353). The data set can be described thus: Radiometric protein kinase assay (33PanQinase Activity Assay) for RIP2, peptide-based. The data set is classed as biochemical. The note with it: for remaining activity at 0.1 µM / remaining activity at 1 µM: 1 h; for remaining activity at 0.1 µM: compound at 0.1 μM; for remaining activity at 1 µM: compound at 1 μM; for IC50: ATP 3.0 μM, RIP2 15.7 nM, 30° C., 60 minutes. Here is the method: The inhibition of RIP2 kinase was assessed using RIP2 recombinant protein in an in vitro peptide-based kinase assay.
A radiometric protein kinase assay (^33PanQinase® Activity Assay) is used for measuring the kinase activity. All assays are performed in 96-well FlashPlates™ from Perkin Elmer in a 50 μl reaction volume. The reaction cocktail is pipetted in 4 steps in the following order: • 10 μl of non-radioactive ATP solution (in H2O) • 25 μl of assay buffer/[γ-^33P]-ATP mixture • 5 μl of test sample in 10% DMSO • 10 μl of enzyme/substrate mixture
The assay for RIP2 contains 70 mM HEPES-NaOH pH 7.5, 3 mM MgCl2, 3 mM MnCl2, 3 μM Na-orthovanadate, 1.2 mM DTT, 50 μg/mI PEG20000, ATP (3.0 μM), [γ-^33P]-ATP (approx. 5×10^05 cpm per well), protein kinase RIP2 (15.7 nM) and substrate (RBER-Chktide), 2.0 μg/50 μl).
The reaction cocktails were incubated at 30° C. for 60 minutes. The reaction was stopped with 50 μl of 2% (v/v) H3PO4, plates were aspirated and washed two times with 200 μl 0.9% (w/v) NaCl. Incorporation of ^33Pi (counting of “cpm”) was determined with a microplate scintillation counter.
The compounds are dissolved to 10 mM in DMSO. Where needed, solutions are sonicated in a bath sonicator.
Table 4 provides the pIC50 values and % Remaining activity values at two concentrations (1 μM and 0.1 μM) of the compounds according to the invention, obtained using the above mentioned kinase assay.

For data set [1] the following is noted: several clinical cases; The Oncologist (2013) 18: e3-e5; cited from earlier work.
For a further data set, the target named is T1, RIP2 (Mus musculus, UniProt P58801).
T1 construct: host or cells: mouse (in vivo colitis models)
The note with it: mouse models of chronic inflammatory bowel diseases; J Biol Chem. (2005) 15, 14981-14988; cited from earlier work.

RIP2 recombinant protein, sequence (O43353 whole entry): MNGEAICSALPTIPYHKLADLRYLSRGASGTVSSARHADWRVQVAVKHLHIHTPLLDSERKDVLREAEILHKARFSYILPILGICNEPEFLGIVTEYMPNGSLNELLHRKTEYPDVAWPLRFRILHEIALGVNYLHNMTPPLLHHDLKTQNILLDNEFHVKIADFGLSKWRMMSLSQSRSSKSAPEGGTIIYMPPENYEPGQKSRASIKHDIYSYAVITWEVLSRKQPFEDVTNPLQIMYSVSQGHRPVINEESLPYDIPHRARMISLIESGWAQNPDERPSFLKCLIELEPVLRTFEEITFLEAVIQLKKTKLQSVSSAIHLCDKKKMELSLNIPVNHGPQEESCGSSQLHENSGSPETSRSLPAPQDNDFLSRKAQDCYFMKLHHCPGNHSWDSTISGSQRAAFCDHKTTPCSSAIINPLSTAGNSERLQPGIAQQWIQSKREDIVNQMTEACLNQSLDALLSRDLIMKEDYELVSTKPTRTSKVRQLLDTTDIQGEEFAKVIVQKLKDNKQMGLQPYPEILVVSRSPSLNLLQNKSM
T1 sequence (P58801 whole entry): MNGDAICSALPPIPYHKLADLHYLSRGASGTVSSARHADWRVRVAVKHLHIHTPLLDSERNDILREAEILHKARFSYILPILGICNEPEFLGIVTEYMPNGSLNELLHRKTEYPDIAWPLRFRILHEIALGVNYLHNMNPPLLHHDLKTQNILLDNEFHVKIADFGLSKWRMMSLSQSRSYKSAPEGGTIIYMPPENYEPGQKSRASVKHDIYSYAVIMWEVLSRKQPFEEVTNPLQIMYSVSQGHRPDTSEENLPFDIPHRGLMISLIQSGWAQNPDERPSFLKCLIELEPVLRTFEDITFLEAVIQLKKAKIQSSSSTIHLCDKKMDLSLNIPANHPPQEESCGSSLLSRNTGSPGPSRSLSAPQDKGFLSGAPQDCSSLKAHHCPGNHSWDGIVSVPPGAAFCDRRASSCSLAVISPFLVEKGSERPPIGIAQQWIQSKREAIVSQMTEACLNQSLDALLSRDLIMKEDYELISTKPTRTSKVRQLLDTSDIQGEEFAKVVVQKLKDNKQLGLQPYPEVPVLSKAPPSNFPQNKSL

A word on the remaining activity: it is what remains of the control signal, in per cent. By IC50 is commonly meant the point on the concentration scale where inhibition reaches its midpoint. As usually defined, the melting point is the temperature, or range, at which the solid turns liquid. The compound `c1cc2cc(c1)-c1cnn3ccc(nc13)NCC1CCCN1CCO2` (stereo not drawn) [Compound O1] yielded a melting point above 300 °C. Further, on RIP2 recombinant protein, the remaining activity at 0.1 µM was below 50%, the remaining activity at 1 µM is below 50% and the IC50 is below 100 nM.
Regarding `CN1CC2CCCN2CCOc2cccc(c2)-c2cnn3ccc1nc23` (stereo not drawn) [Compound O2], the melting point is 91.2 °C. Moreover, the IC50 on RIP2 recombinant protein is below 100 nM.
Take `Clc1cc2cc(c1)-c1cnn3ccc(nc13)NC[C@H]1CCCN1CCCO2` [Compound O3]: the melting point turned out to be 186.4 °C. Moreover, at RIP2 recombinant protein, the remaining activity at 0.1 µM is below 50%, the remaining activity at 1 µM was below 50% and the IC50 is below 100 nM.
In turn, `Clc1cc2cc(c1)-c1cnn3ccc(nc13)NC[C@@H]1CCCN1CCO2` [Compound O4] had a melting point above 300 °C. On RIP2 recombinant protein, the remaining activity at 0.1 µM was below 50%, the remaining activity at 1 µM was below 50% and the IC50 is below 100 nM.
Compound `Fc1cc2cc(c1)-c1cnn3ccc(nc13)NC[C@@H]1CCCN1CCO2` [Compound O5] registered a melting point of 241 °C. Further, at RIP2 recombinant protein, the remaining activity at 0.1 µM was below 50%, the remaining activity at 1 µM is below 50% and the IC50 is below 100 nM.
`Fc1cc2cc(c1)-c1cnn3ccc(nc13)NC[C@H]1CCCN1CCCO2` [Compound O6] registered a melting point above 300 °C. On RIP2 recombinant protein, the remaining activity at 0.1 µM was below 50%, the remaining activity at 1 µM is below 50% and the IC50 is below 100 nM.
`Fc1cc2cc(c1)-c1cnn3ccc(nc13)NCC[C@H]1CCCN1CCO2` [Compound O7] came in with a melting point above 300 °C. At RIP2 recombinant protein, the remaining activity at 0.1 µM was below 50%, the remaining activity at 1 µM is below 50% and the IC50 was below 100 nM.
The compound `c1cc2cc(c1)-c1cnn3ccc(nc13)NC[C@@H]1CCCN1CCO2` [Compound O8] gave a melting point above 300 °C. Moreover, at RIP2 recombinant protein, the remaining activity at 0.1 µM was below 50%, the remaining activity at 1 µM was below 50% and the IC50 was below 100 nM.
`Clc1cc2cc(c1)-c1cnn3ccc(nc13)NC[C@@H]1CCCN1CCCO2` [Compound O9] displayed a melting point above 300 °C. Further, at RIP2 recombinant protein, the remaining activity at 0.1 µM was below 50%, the remaining activity at 1 µM is below 50% and the IC50 is below 100 nM.
`CN1C[C@@H]2CCCN2CCOc2cccc(c2)-c2cnn3ccc1nc23` [Compound O10] returned a melting point of 198.5 °C. For the same compound, at RIP2 recombinant protein, the remaining activity at 0.1 µM was below 50%, the remaining activity at 1 µM is below 50% and the IC50 was below 100 nM.
Consider `Fc1cc2cc(c1)-c1cnn3ccc(nc13)NC[C@@H]1CCCN1CCCO2` [Compound O11], for which, at RIP2 recombinant protein, the remaining activity at 0.1 µM is below 50%, the remaining activity at 1 µM was below 50% and the IC50 is below 100 nM.
As for `Fc1c(Cl)cc2cc1OCCN1CCC[C@H]1CNc1ccn3ncc-2c3n1` [Compound O12], at RIP2 recombinant protein, the remaining activity at 0.1 µM is below 50%, the remaining activity at 1 µM is below 50% and the IC50 was below 100 nM.
With `Fc1cc2cc(c1)-c1cnn3ccc(nc13)NCC1CCCCN1CCO2` (stereo not drawn) [Compound O13], on RIP2 recombinant protein, the remaining activity at 0.1 µM is below 50%, the remaining activity at 1 µM is below 50% and the IC50 is below 100 nM.
As for `Fc1cc2cc(c1)-c1cnn3ccc(nc13)NCC1CCCCN1CCCO2` (stereo not drawn) [Compound O14], the IC50 at RIP2 recombinant protein was below 100 nM.
As to `C#Cc1cccc(Nc2ncnc3cc(OCCOC)c(OCCOC)cc23)c1` [Erlotinib], the “clinical effect on psoriasis, arthritic symptoms or insulin-resistant type 2 diabetes” value in data set [1] is reported as “efficient to clear psoriasis or reduce arthritic symptoms or insulin-resistant type 2 diabetes”.
`COc1cc2ncnc(Nc3ccc(F)c(Cl)c3)c2cc1OCCCN1CCOCC1` [Gefitinib]: in data set [1], the “clinical effect on psoriasis, arthritic symptoms or insulin-resistant type 2 diabetes” value is recorded as “efficient to clear psoriasis or reduce arthritic symptoms or insulin-resistant type 2 diabetes”.
Consider `C[S+]([O-])c1ccc(-c2nc(-c3ccncc3)c(-c3ccc(F)cc3)[nH]2)cc1` (stereo not drawn) [SB203580], for which, at RIP2, the “effect on induced colitis” value was “efficacious to reduce induced-colitis”.
